From patent US20260167656A1, “PHOSPHORAMIDATE COMPOUNDS AND USES THEREOF” (ALLORION THERAPEUTICS INC, priority 2022, published 2026)

How the values were obtained:
[1] = tested on: non-small cell lung cancer cell line H460; assay: H460 proliferation assay in the presence of 3 uM ASP9521 (AKR1C3 specific inhibitor); type: cell-based, human; conditions: H460 cells, CellTiter-Glo, 72 hours, in the presence of 3 uM ASP9521 added 4 hours prior to compounds; read-out: CTG H460: Avg IC50 (nM) [Assay Condition: ASP9521]
Summary of the method: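 H460 cells pre-incubated 24 h, then exposed to compounds for 72 h at 37 °C, 5% CO2. Viability read by CellTiter-Glo. ASP9521 (3 uM, AKR1C3 inhibitor) added 4 h before compounds.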

[2] = tested on: non-small cell lung cancer cell line H460; assay: In vitro human cancer cell line cytotoxicity (proliferation) assay in H460, CellTiter-Glo, 72 hours; type: cell-based; conditions: DMSO condition (no AKR1C3 inhibitor), read-out: CTG H460: Avg IC50 (nM) [Assay Condition: DMSO]
Summary of the method: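 H460 cells were seeded at 3×10^3 per well and grown 24 h at 37 °C, 5% CO2 before compound addition from 10 mM DMSO stocks. After 72 h further incubation, viability was measured by CellTiter-Glo, and IC50 values in nM were derived from the proliferation data.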

[3] = Homo sapiens, NCI-H460, 72 h, H460 cells
[4] = Homo sapiens, NCI-H460, H460 cells

SMILES | IC50 [1] [nM] | IC50 ([2]; H460 cells) [nM] | IC50 [2, 3] [nM] | IC50 [2, 4] [nM]
O=[N+]([O-])c1ccc2c(c1Oc1ccc(O)c(-c3ncc(F)cn3)c1)CCC2OP(=O)(N1CC1)N1CC1 (stereo not shown) [Example 338] | 5560 | 10 to 50 |  | 
COc1ccc(Oc2c([N+](=O)[O-])ccc3c2CCC3OP(=O)(N2CC2)N2CC2)cc1-c1ccc(F)cn1 (stereo not shown) [Example 339] | 1360 | < 10 |  | 
Cc1csc(-c2cc(Oc3c([N+](=O)[O-])ccc4c3CCC4OP(=O)(N3CC3)N3CC3)ccc2F)n1 (stereo not shown) [Example 340] | 4390 | 10 to 50 |  | 
O=[N+]([O-])c1ccc2c(c1Oc1ccc(O)c(-c3ncccn3)c1)CC[C@@H]2OP(=O)(N1CC1)N1CC1 [Example 341] | 1920 |  | < 10 | 
Cc1cnc(-c2cccc(Oc3c([N+](=O)[O-])ccc4c3CC[C@@H]4OP(=O)(N3CC3)N3CC3)c2)s1 [Example 342] | 4270 |  | 10 to 50 | 
Cc1csc(-c2cccc(Oc3c([N+](=O)[O-])ccc4c3CC[C@@H]4OP(=O)(N3CC3)N3CC3)c2)n1 [Example 343] | 2300 |  | < 10 | 
Cc1ncc(-c2cccc(Oc3c([N+](=O)[O-])ccc4c3CC[C@@H]4OP(=O)(N3CC3)N3CC3)c2)[nH]1 [Example 344] | 1510 |  | < 10 | 
Cn1cnc(-c2cccc(Oc3c([N+](=O)[O-])ccc4c3CC[C@@H]4OP(=O)(N3CC3)N3CC3)c2)c1 [Example 345] | 2110 |  |  | < 10
O=[N+]([O-])c1ccc2c(c1Oc1ccc(F)c(-c3ncns3)c1)CC[C@@H]2OP(=O)(N1CC1)N1CC1 [Example 347] | 1300 |  | < 10 | 
COc1ccc(Oc2c([N+](=O)[O-])ccc3c2CC[C@@H]3OP(=O)(N2CC2)N2CC2)cc1C1CC1 [Example 348] | 827 |  | < 10 | 
Cc1nnc(-c2cccc(Oc3c([N+](=O)[O-])ccc4c3CC[C@@H]4OP(=O)(N3CC3)N3CC3)c2)s1 [Example 349] | 498 |  | < 10 | 
Cn1cncc1-c1cccc(Oc2c([N+](=O)[O-])ccc3c2CC[C@@H]3OP(=O)(N2CC2)N2CC2)c1 [Example 350] | 1870 |  | < 10 | 
O=[N+]([O-])c1ccc2c(c1Oc1cccc(-c3ccnn3CCO)c1)CC[C@@H]2OP(=O)(N1CC1)N1CC1 [Example 351] | 1570 |  | < 10 | 
O=[N+]([O-])c1ccc2c(c1Oc1cccc(-c3nncs3)c1)CC[C@H]2OP(=O)(N1CC1)N1CC1 [Example 352] | 268 |  | < 10 | 
COc1cc(Oc2c([N+](=O)[O-])ccc3c2CC[C@@H]3OP(=O)(N2CC2)N2CC2)cc(-c2ccc(F)cn2)c1 [Example 353] | 1010 |  | < 10 | 
Cn1nnc(-c2cccc(Oc3c([N+](=O)[O-])ccc4c3CC[C@@H]4OP(=O)(N3CC3)N3CC3)c2)n1 [Example 354] | 768 |  | < 10 | 
Cn1nnc(-c2cc(Oc3c([N+](=O)[O-])ccc4c3CC[C@@H]4OP(=O)(N3CC3)N3CC3)ccc2F)n1 [Example 355] | 1130 |  | < 10 | 
O=[N+]([O-])c1ccc2c(c1Oc1cc(F)cc(-c3ncccn3)c1)CC[C@@H]2OP(=O)(N1CC1)N1CC1 [Example 356] | 1990 |  | < 10 | 
COc1cc(Oc2c([N+](=O)[O-])ccc3c2CC[C@@H]3OP(=O)(N2CC2)N2CC2)cc(-c2ncccn2)c1 [Example 357] | 467 |  | < 10 | 
O=[N+]([O-])c1ccc2c(c1Oc1cc(F)cc(-c3ccc(F)cn3)c1)CC[C@@H]2OP(=O)(N1CC1)N1CC1 [Example 358] | 1740 |  | < 10 | 
Cc1nsc(-c2cc(Oc3c([N+](=O)[O-])ccc4c3CC[C@@H]4OP(=O)(N3CC3)N3CC3)ccc2F)n1 [Example 359] | 1470 |  |  | < 10
Cc1nsc(-c2cccc(Oc3c([N+](=O)[O-])ccc4c3CC[C@@H]4OP(=O)(N3CC3)N3CC3)c2F)n1 [Example 360] | 391 |  | < 10 | 
Cc1coc(-c2cccc(Oc3c([N+](=O)[O-])ccc4c3CC[C@@H]4OP(=O)(N3CC3)N3CC3)c2)n1 [Example 361] | 3910 |  | 10 to 50 | 
O=[N+]([O-])c1ccc2c(c1Oc1cccc(-c3cnc[nH]3)c1)CC[C@@H]2OP(=O)(N1CC1)N1CC1 [Example 362] | 1660 |  | < 10 | 
O=[N+]([O-])c1ccc2c(c1Oc1ccc(F)c(-c3nncs3)c1)CC[C@@H]2OP(=O)(N1CC1)N1CC1 [Example 363] | 584 |  | < 10 | 
O=[N+]([O-])c1ccc2c(c1Oc1cc(F)cc(-c3ncc(F)cn3)c1)CC[C@@H]2OP(=O)(N1CC1)N1CC1 [Example 364] | 4030 |  | 10 to 50 | 
COc1cc(Oc2c([N+](=O)[O-])ccc3c2CC[C@@H]3OP(=O)(N2CC2)N2CC2)cc(-c2ncc(F)cn2)c1 [Example 365] | 1320 |  | < 10 | 

SMILES | IC50 [1] [nM] | IC50 ([2]; H460 cells) [nM] | IC50 [2, 3] [nM] | IC50 [2, 4] [nM]
Cn1nccc1-c1cccc(Oc2c([N+](=O)[O-])ccc3c2CCC3OP(=O)(N2CC2)N2CC2)c1 (stereo not shown) [Example 366] | 636 | < 10 |  | 
O=[N+]([O-])c1ccc2c(c1Oc1cccc(-c3ccnn3CC(F)F)c1)CC[C@@H]2OP(=O)(N1CC1)N1CC1 [Example 367] | 321 |  | < 10 | 
CCc1nsc(-c2cccc(Oc3c([N+](=O)[O-])ccc4c3CC[C@@H]4OP(=O)(N3CC3)N3CC3)c2)n1 [Example 368] | 3360 |  | 10 to 50 | 
O=[N+]([O-])c1ccc2c(c1Oc1cccc(-c3cn[nH]c3)c1)CC[C@@H]2OP(=O)(N1CC1)N1CC1 [Example 369] | 938 |  | < 10 | 
O=[N+]([O-])c1ccc2c(c1Oc1ccc(F)c(-c3cn[nH]c3)c1)CC[C@@H]2OP(=O)(N1CC1)N1CC1 [Example 370] | 967 |  | < 10 | 
O=[N+]([O-])c1ccc2c(c1Oc1cccc(-c3c(F)cnn3CCO)c1)CC[C@@H]2OP(=O)(N1CC1)N1CC1 [Example 371] | 591 |  | < 10 | 
O=[N+]([O-])c1ccc2c(c1Oc1cccc(-c3cc(F)nn3CCO)c1)CC[C@@H]2OP(=O)(N1CC1)N1CC1 [Example 372] | 332 |  | < 10 | 
Cn1ncc(F)c1-c1cccc(Oc2c([N+](=O)[O-])ccc3c2CCC3OP(=O)(N2CC2)N2CC2)c1 (stereo not shown) [Example 373] | 672 | < 10 |  | 
Cn1nc(F)cc1-c1cccc(Oc2c([N+](=O)[O-])ccc3c2CCC3OP(=O)(N2CC2)N2CC2)c1 (stereo not shown) [Example 374] | 468 | < 10 |  | 
Cn1nc(-c2cccc(Oc3c([N+](=O)[O-])ccc4c3CC[C@@H]4OP(=O)(N3CC3)N3CC3)c2)cc1F [Example 375] | 2520 |  | < 10 | 
CSc1ccc(Oc2c([N+](=O)[O-])ccc3c2CC[C@@H]3OP(=O)(N2CC2)N2CC2)cc1-c1nc(C)ns1 [Example 376] | 1850 |  | < 10 | 
Cn1c(=O)oc2ccc(Oc3c([N+](=O)[O-])ccc4c3CCC4OP(=O)(N3CC3)N3CC3)cc21 (stereo not shown) [Example 378] | 440 |  | < 10 | 
O=C1c2ccc(Oc3c([N+](=O)[O-])ccc4c3CC[C@@H]4OP(=O)(N3CC3)N3CC3)cc2CN1C1CC1 [Example 379] | 447 |  | < 10 | 
Cn1c(=O)oc2ccc(Oc3c([N+](=O)[O-])ccc4c3CC[C@@H]4OP(=O)(N3CC3)N3CC3)cc21 [Example 380] | 722 |  | < 10 | 
Cn1ccc2cc(Oc3c([N+](=O)[O-])ccc4c3CCC4OP(=O)(N3CC3)N3CC3)ccc2c1=O (stereo not shown) [Example 381] | 312 |  | < 10 | 
Cn1ccc2cc(Oc3c([N+](=O)[O-])ccc4c3CC[C@@H]4OP(=O)(N3CC3)N3CC3)ccc2c1=O [Example 382] | 320 |  | < 10 | 
O=[N+]([O-])c1ccc2c(c1Oc1ccc3nccn3c1)CC[C@H]2OP(=O)(N1CC1)N1CC1 [Example 383] | 4240 |  | 10 to 50 | 
Cn1ccc2cc(Oc3c([N+](=O)[O-])ccc4c3CCC4OP(=O)(N3CC3)N3CC3)ccc21 (stereo not shown) [Example 384] | 1490 |  | < 10 | 
O=[N+]([O-])c1ccc2c(c1Oc1ccc3c(c1)OC(F)(F)O3)CC[C@@H]2OP(=O)(N1CC1)N1CC1 [Example 385] | 819 |  | < 10 | 
Cn1ccc2cc(Oc3c([N+](=O)[O-])ccc4c3CC[C@H]4OP(=O)(N3CC3)N3CC3)ccc21 [Example 386] | 1410 |  | < 10 | 
Cc1cc2cc(Oc3c([N+](=O)[O-])ccc4c3CCC4OP(=O)(N3CC3)N3CC3)ccc2n1C (stereo not shown) [Example 387] | 1860 |  | < 10 | 
Cc1nc2cc(Oc3c([N+](=O)[O-])ccc4c3CCC4OP(=O)(N3CC3)N3CC3)ccc2n1C (stereo not shown) [Example 388] | 1430 |  | < 10 | 
Cn1cnc2cc(Oc3c([N+](=O)[O-])ccc4c3CCC4OP(=O)(N3CC3)N3CC3)ccc21 (stereo not shown) [Example 390] | 1410 |  |  | < 10
Cc1cc2cc(Oc3c([N+](=O)[O-])ccc4c3CC[C@H]4OP(=O)(N3CC3)N3CC3)ccc2n1C [Example 391] | 1810 |  | < 10 | 
Cc1nc2cc(Oc3c([N+](=O)[O-])ccc4c3CC[C@H]4OP(=O)(N3CC3)N3CC3)ccc2n1C [Example 392] | 785 |  | < 10 | 
O=[N+]([O-])c1ccc2c(c1Oc1ccc3c(c1)OCO3)CC[C@@H]2OP(=O)(N1CC1)N1CC1 [Example 394] | 388 |  | < 10 | 
